Assay: xn = mol fraction of the nth substance listed
Conditions: 101 kPa, Liquid; for viscosity: Capillary tube (Ostwald / Ubbelohde) method; for speed of sound: Sing-around technique in a fixed-path interferometer; for mass density: Vibrating tube method

C1CCOC1 [tetrahydrofuran] + CCCCCCCCO
Conditions	mass density [kg/m3]	speed of sound [m/s]	viscosity [mPa·s]
298.15 K, x1 = 0.0541	823.522	1344.5	6.305
298.15 K, x1 = 0.1044	825.135	1341.3	5.403
298.15 K, x1 = 0.1535	826.78	1337.5	4.698
298.15 K, x1 = 0.205	828.609	1333.5	4.025
298.15 K, x1 = 0.2574	830.564	1329.8	3.477
298.15 K, x1 = 0.3054	832.449	1326.5	2.996
298.15 K, x1 = 0.4003	836.541	1319.6	2.307
298.15 K, x1 = 0.5004	841.464	1312.2	1.747
298.15 K, x1 = 0.6111	847.802	1302.9	1.271
298.15 K, x1 = 0.7032	853.984	1295.5	0.996
298.15 K, x1 = 0.8116	862.541	1287.9	0.747
298.15 K, x1 = 0.9048	871.362	1281.7	0.589
303.15 K, x1 = 0.0541	819.992	1327.7	5.227
303.15 K, x1 = 0.1044	821.552	1324.3	4.562
303.15 K, x1 = 0.1535	823.145	1320.4	3.988
303.15 K, x1 = 0.205	824.915	1316	3.395
303.15 K, x1 = 0.2574	826.809	1312.4	3.014
303.15 K, x1 = 0.3054	828.634	1308.7	2.602
303.15 K, x1 = 0.4003	832.585	1301.4	2.089
303.15 K, x1 = 0.5004	837.343	1293.4	1.566
303.15 K, x1 = 0.6111	843.471	1283.4	1.173
303.15 K, x1 = 0.7032	849.444	1275.5	0.931
303.15 K, x1 = 0.8116	857.718	1266.9	0.715
303.15 K, x1 = 0.9048	866.235	1259.7	0.566
308.15 K, x1 = 0.0541	816.44	1310.7	4.208
308.15 K, x1 = 0.1044	817.948	1307.3	3.709
308.15 K, x1 = 0.1535	819.488	1303	3.217
308.15 K, x1 = 0.205	821.202	1298.8	2.779
308.15 K, x1 = 0.2574	823.029	1294.7	2.46
308.15 K, x1 = 0.3054	824.796	1290.9	2.176
308.15 K, x1 = 0.4003	828.614	1283.1	1.748
308.15 K, x1 = 0.5004	833.216	1274.6	1.348
308.15 K, x1 = 0.6111	839.116	1264.1	1.014
308.15 K, x1 = 0.7032	844.874	1255.2	0.819
308.15 K, x1 = 0.8116	852.874	1244.9	0.632
308.15 K, x1 = 0.9048	861.083	1237	0.514
313.15 K, x1 = 0.0541	812.862	1294.2	–
313.15 K, x1 = 0.1044	814.315	1290.6	–
313.15 K, x1 = 0.1535	815.803	1286.2	–
313.15 K, x1 = 0.205	817.465	1282	–
313.15 K, x1 = 0.2574	819.222	1277.6	–
313.15 K, x1 = 0.3054	820.932	1273.8	–
313.15 K, x1 = 0.4003	824.625	1265.5	–
313.15 K, x1 = 0.5004	829.064	1256.5	–
313.15 K, x1 = 0.6111	834.743	1245.4	–
313.15 K, x1 = 0.7032	840.294	1236.1	–
313.15 K, x1 = 0.8116	848	1225	–
313.15 K, x1 = 0.9048	855.903	1216.3	–

CCCCCCO [hexan-1-ol] + C1CCOC1
Conditions	mass density [kg/m3]	speed of sound [m/s]	viscosity [mPa·s]
298.15 K, x2 = 0.0538	817.624	1301.1	3.778
298.15 K, x2 = 0.1144	820.377	1298.8	3.16
298.15 K, x2 = 0.1511	822.105	1297	2.887
298.15 K, x2 = 0.2009	824.537	1295	2.477
298.15 K, x2 = 0.256	827.327	1292.7	2.133
298.15 K, x2 = 0.3156	830.492	1291	1.855
298.15 K, x2 = 0.4199	836.41	1287.7	1.453
298.15 K, x2 = 0.5013	841.407	1285.1	1.199
298.15 K, x2 = 0.6029	848.183	1282.2	0.986
298.15 K, x2 = 0.7071	855.823	1279.3	0.786
298.15 K, x2 = 0.8042	863.667	1277.1	0.661
298.15 K, x2 = 0.9057	872.745	1276.4	0.559
303.15 K, x2 = 0.0538	813.958	1284.1	3.22
303.15 K, x2 = 0.1144	816.633	1281.5	2.737
303.15 K, x2 = 0.1511	818.311	1279.5	2.516
303.15 K, x2 = 0.2009	820.671	1277.3	2.148
303.15 K, x2 = 0.256	823.388	1275.1	1.901
303.15 K, x2 = 0.3156	826.467	1272.8	1.633
303.15 K, x2 = 0.4199	832.217	1269	1.325
303.15 K, x2 = 0.5013	837.071	1265.9	1.107
303.15 K, x2 = 0.6029	843.655	1262.2	0.904
303.15 K, x2 = 0.7071	851.067	1258.5	0.719
303.15 K, x2 = 0.8042	858.694	1255.6	0.619
303.15 K, x2 = 0.9057	867.506	1254	0.536
308.15 K, x2 = 0.0538	810.268	1267.1	2.728
308.15 K, x2 = 0.1144	812.863	1264	2.373
308.15 K, x2 = 0.1511	814.495	1261.9	2.13
308.15 K, x2 = 0.2009	816.788	1259.4	1.886
308.15 K, x2 = 0.256	819.426	1257.1	1.598
308.15 K, x2 = 0.3156	822.411	1254.3	1.422
308.15 K, x2 = 0.4199	827.995	1249.8	1.127
308.15 K, x2 = 0.5013	832.704	1246	0.95
308.15 K, x2 = 0.6029	839.095	1241.4	0.796
308.15 K, x2 = 0.7071	846.295	1236.7	0.64
308.15 K, x2 = 0.8042	853.69	1232.5	0.566
308.15 K, x2 = 0.9057	862.242	1230	0.47
313.15 K, x2 = 0.0538	806.544	1250.3	–
313.15 K, x2 = 0.1144	809.062	1246.9	–
313.15 K, x2 = 0.1511	810.645	1244.7	–
313.15 K, x2 = 0.2009	812.872	1242.7	–
313.15 K, x2 = 0.256	815.429	1239.8	–
313.15 K, x2 = 0.3156	818.321	1236.7	–
313.15 K, x2 = 0.4199	823.739	1231.7	–
313.15 K, x2 = 0.5013	828.306	1227.5	–
313.15 K, x2 = 0.6029	834.502	1222.5	–
313.15 K, x2 = 0.7071	841.483	1217	–
313.15 K, x2 = 0.8042	848.648	1212.4	–
313.15 K, x2 = 0.9057	856.935	1209	–

CCCCCCCCCCO [decan-1-ol] + C1CCOC1
Conditions	mass density [kg/m3]	speed of sound [m/s]	viscosity [mPa·s]
298.15 K, x2 = 0.0503	827.6	1372.7	9.806
298.15 K, x2 = 0.1046	828.949	1368.8	8.47
298.15 K, x2 = 0.157	830.327	1365.1	7.201
298.15 K, x2 = 0.2022	831.593	1361.8	6.345
298.15 K, x2 = 0.253	833.093	1357.5	5.428
298.15 K, x2 = 0.3057	834.766	1352.6	4.609
298.15 K, x2 = 0.4094	838.49	1343.7	3.343
298.15 K, x2 = 0.5018	842.347	1334	2.503
298.15 K, x2 = 0.6038	847.354	1323.4	1.842
298.15 K, x2 = 0.7003	853.111	1312.4	1.366
298.15 K, x2 = 0.8004	860.53	1299.3	0.98
298.15 K, x2 = 0.9043	870.265	1286.4	0.691
303.15 K, x2 = 0.0503	824.137	1355.9	8.074
303.15 K, x2 = 0.1046	825.438	1351.7	7.037
303.15 K, x2 = 0.157	826.766	1348.3	6.17
303.15 K, x2 = 0.2022	827.998	1344.4	5.262
303.15 K, x2 = 0.253	829.453	1339.9	4.527
303.15 K, x2 = 0.3057	831.076	1335	3.958
303.15 K, x2 = 0.4094	834.656	1325.7	2.908
303.15 K, x2 = 0.5018	838.365	1315.6	2.095
303.15 K, x2 = 0.6038	843.203	1304.3	1.635
303.15 K, x2 = 0.7003	848.748	1292.6	1.224
303.15 K, x2 = 0.8004	855.869	1278.9	0.907
303.15 K, x2 = 0.9043	865.235	1264.9	0.649
308.15 K, x2 = 0.0503	820.661	1339.1	6.379
308.15 K, x2 = 0.1046	821.913	1335	5.67
308.15 K, x2 = 0.157	823.195	1331.1	4.969
308.15 K, x2 = 0.2022	824.389	1327	4.236
308.15 K, x2 = 0.253	825.796	1322.2	3.663
308.15 K, x2 = 0.3057	827.357	1317.2	3.249
308.15 K, x2 = 0.4094	830.825	1307.1	2.385
308.15 K, x2 = 0.5018	834.401	1296.8	1.738
308.15 K, x2 = 0.6038	839.036	1284.4	1.408
308.15 K, x2 = 0.7003	844.365	1271.8	1.04
308.15 K, x2 = 0.8004	851.199	1257.6	0.807
308.15 K, x2 = 0.9043	860.184	1241.5	0.58
313.15 K, x2 = 0.0503	817.16	1322.7	–
313.15 K, x2 = 0.1046	818.367	1318.3	–
313.15 K, x2 = 0.157	819.603	1314.4	–
313.15 K, x2 = 0.2022	820.753	1310.1	–
313.15 K, x2 = 0.253	822.116	1305.7	–
313.15 K, x2 = 0.3057	823.62	1300.1	–
313.15 K, x2 = 0.4094	826.953	1289.6	–
313.15 K, x2 = 0.5018	830.393	1278.9	–
313.15 K, x2 = 0.6038	834.849	1266.3	–
313.15 K, x2 = 0.7003	839.96	1253.2	–
313.15 K, x2 = 0.8004	846.506	1238.4	–
313.15 K, x2 = 0.9043	855.097	1221.6	–
